Data set [1] concerns Liver. As to the kind of experiment: Hydrolytic rate constant, log k of the compound in Wistar rat liver S9 fraction. Type of data set: ADME, subcellular.
Data set [2] relates to Plasma. As to the kind of experiment: (§1) Metabolic stability of the compound in Wistar rat plasma assessed as half life at 1 uM by RP-HPLC analysis. The settings on record: 1 µM. The format is ADME, cell-free.
Data set [3] has as its system Liver. As to the kind of experiment: (§2) Metabolic stability of the compound in Wistar rat liver S9 fraction assessed as half life at 1 uM by RP-HPLC analysis. The format is ADME, subcellular. The settings on record: s9, 1 µM.
A short description of data set [4]: Chemical stability of the compound in 0.01 M borate buffer assessed as half life at pH 9.0 by HPLC analysis. The settings on record: for t1/2: buffer; for half-life: 0.01 M borate buffer. Type of data set: physicochemical.
Data set [5] concerns Plasma. As to the kind of experiment: Hydrolytic rate constant, log k of the compound in Wistar rat plasma. Type of data set: ADME, cell-free.
A short description of data set [6]: Chemical stability of the compound in 0.01 M PBS assessed as compound remaining at pH 7.4 by HPLC analysis. The settings on record: buffer.
Data set [7] can be described thus: as §1. Type of data set: ADME, cell-free. The settings on record: Wistar.
Data set [8] can be described thus: as §2. The format is ADME, subcellular. The settings on record: Wistar, liver S9 fraction.
The nature of data set [9]: Chemical stability of the compound in 0.01 M borate buffer assessed as half life at 100 nM and pH 9.0 by HPLC analysis. The format is physicochemical.
The nature of data set [10]: Chemical stability of the compound in 0.01 M borate buffer assessed as half life at 1 uM and pH 9.0 by HPLC analysis. Type of data set: physicochemical.
Data set [11] in a line: Chemical stability of the compound in 0.01 M borate buffer assessed as half life at 300 nM and pH 9.0 by HPLC analysis. Type of data set: physicochemical.
Data set [12] in a line: Metabolic stability of the compound in Wistar rat liver S9 fraction at 1 uM measured after 90 mins by RP-HPLC analysis. Type of data set: ADME, subcellular. The settings on record: read-out: Stability.
For data set [13], the target named is T1, Fatty-acid amide hydrolase 1 (Rattus norvegicus, UniProt P97612).
T1 sequence (P97612 whole entry): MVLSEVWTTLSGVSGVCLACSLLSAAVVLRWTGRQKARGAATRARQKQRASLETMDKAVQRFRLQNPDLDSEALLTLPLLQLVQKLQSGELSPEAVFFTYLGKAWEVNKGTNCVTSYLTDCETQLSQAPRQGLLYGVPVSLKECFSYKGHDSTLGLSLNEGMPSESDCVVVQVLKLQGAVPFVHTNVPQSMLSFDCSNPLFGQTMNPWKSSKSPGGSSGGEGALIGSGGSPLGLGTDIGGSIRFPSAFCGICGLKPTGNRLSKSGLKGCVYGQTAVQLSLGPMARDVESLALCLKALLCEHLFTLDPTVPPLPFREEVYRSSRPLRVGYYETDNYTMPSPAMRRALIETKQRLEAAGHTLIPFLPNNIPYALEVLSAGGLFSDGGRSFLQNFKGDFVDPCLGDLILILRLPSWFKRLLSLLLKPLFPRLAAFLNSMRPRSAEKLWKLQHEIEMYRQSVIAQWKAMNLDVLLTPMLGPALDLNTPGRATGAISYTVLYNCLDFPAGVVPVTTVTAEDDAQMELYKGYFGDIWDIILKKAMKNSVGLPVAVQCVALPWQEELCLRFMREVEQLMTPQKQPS
As to the kind of experiment: Displacement of [3H]-anandamide from rat brain FAAH after 30 mins by scintillation counting. On the technique in general: Loss of bound radioactivity is the signal in a displacement assay; it reports binding, not function.

Data set [14] has as its system Rattus norvegicus. As to the kind of experiment: In vivo displacement of [3H]-anandamide from rat brain FAAH after 30 mins by scintillation counting. The format is functional. The settings on record: read-out: ID50 (the source's name).
For data set [15], the target named is T2, Fatty-acid amide hydrolase 1 (Rattus norvegicus) (UniProt P97612).
T2 sequence (whole entry): T1 sequence (P97612 whole entry)
Kind of data set: Selectivity index, ratio URB524 pIC50 to compound pIC50 for displacement of [3H]-anandamide from rat brain FAAH after 30 mins by scintillation counting.

As for `O=C(NC1CCC1)Oc1cccc(-c2ccccc2)c1`, the Activity was -0.56 in data set [1] and -1.46 in data set [5]. Also, the t1/2 was determined as 19.9 min in data set [2], 2.5 min in [3] and 27.5 min in data set [4]. Further, the Stability in data set [6] is given as 22.6%.
For the molecule `CNC(=O)Oc1cccc(-c2ccccc2)c1`, the Activity in [1] is on record as -1.03; in data set [5], -0.74. Besides, the t1/2 in [2] was found to be 3.8 min; in data set [3] it was 7.4 min; in data set [4], 43.8 min. Besides, in data set [6], the Stability was determined as 33.9%.
As for `CCCCNC(=O)Oc1cccc(-c2ccccc2)c1`, the results for the Activity in data set [1] and in [5] were -0.41 and -1.49, respectively. Moreover, the t1/2 in [2] is listed as 21.6 min; in [3], 1.8 min; in [4] it was 42.9 min. The Stability in data set [6] is given as 46.7%.
As for `O=C(NCc1cccc2ccccc12)Oc1cccc(-c2ccccc2)c1`, the Activity in data set [1] is reported as -1.83; in [5], -1.03. The t1/2 in data set [2] is 7.3 min; in data set [3], 46.8 min; in data set [4], 38.7 min. Besides, the Stability in data set [6] worked out at 24.8%.
On to `O=C(NCCCCCCN1CCOCC1)Oc1cccc(-c2ccccc2)c1`, for which the Activity in data set [1] is -1.27; in [5], -1.06. The t1/2 in data set [2] was found to be 8 min; in data set [3], 13 min; in [4] it was 33.4 min. Moreover, in data set [6], the Stability was 30.9%.
In the case of `NC(=O)c1cccc(-c2cccc(OC(=O)NC3CCCCC3)c2)c1` [URB-597], the values for the half-life at 1 µM in data set [7] and in data set [8] were 33 min and 58.7 min, respectively. Besides, the half-life (in general, how long it takes for the measured level to halve) in data set [4] amounted to 33 min. In addition, in data set [6], the Stability was 40.2%.
With `O=C(NC1Cc2ccccc2C1)Oc1cccc(-c2ccccc2)c1`, the values for the Activity in data set [1] and in [5] were -1.96 and -1.38, respectively. Besides, the figures for the t1/2 in [2], in data set [3] and in data set [4] were 16.5 min, 63.1 min and 22.4 min, respectively. Besides, the Stability in data set [6] is on record as 16.2%.
Regarding `CC(C)NC(=O)Oc1cccc(-c2ccccc2)c1`, the Activity in data set [1] is listed as -0.45; in data set [5], -1.46. The t1/2 in [2] was 20 min; in data set [3] it was 1.9 min; in [4], 61.8 min. The Stability in data set [6] was determined as 34.6%.
As for `O=C(NC12CC3CC(CC(C3)C1)C2)Oc1cccc(-c2ccccc2)c1`, the half-life at 0.1 µM in [9] amounted to 264 min. Moreover, the t1/2 in [2] came out at 183.3 min. In addition, in [10], the half-life at 1 µM was 266 min. In addition, the half-life at 0.3 µM in data set [11] was 262 min. Further, the remaining at 1.5 h, 1 µM in data set [12] stood at 99.2%. The Activity in data set [5] is given as -2.42. The Stability in data set [6] is recorded as 66.7%.
For the molecule `O=C(NCc1ccccc1)Oc1cccc(-c2ccccc2)c1`, the values for the Activity in [1] and in [5] were -1.19 and -1.32, respectively. The t1/2 is recorded as 14.3 min in data set [2], 10.8 min in data set [3] and 26.5 min in data set [4]. In addition, the Stability in data set [6] worked out at 22.7%.
For the molecule `NC(=O)c1cccc(-c2cccc(OC(=O)NCc3ccc4ccccc4c3)c2)c1`, the t1/2 in data set [2] turned out to be 5.6 min; in [3] it was 39 min; in data set [4] it was 13.9 min. Besides, the Stability in data set [6] is reported as 22.8%.
Regarding `NC(=O)c1cccc(-c2cccc(OC(=O)NCCCCc3ccccc3)c2)c1`, the values for the t1/2 in data set [2], in [3] and in [4] were 4.2 min, 46.9 min and 30.3 min, respectively. In data set [13], the negative-log IC50 (pIC50) (in general, the negative decadic logarithm of the IC50, by convention in mol/L) was 9.48. Further, in data set [6], the Stability was found to be 18.8%.
Consider `O=C(NCc1ccc2ccccc2c1)Oc1cccc(-c2ccccc2)c1`, for which the Activity in data set [1] was -1.6; in data set [5], -0.17. The t1/2 in data set [2] was determined as 1 min; in data set [3] it was 27.5 min; in data set [4], 23.9 min. The Stability in data set [6] stood at 18.4%.
For `O=C(NCCCCc1ccccc1)Oc1cccc(-c2ccccc2)c1`, the Activity is listed as -1.44 in [1] and -0.98 in data set [5]. In addition, the half-life at 0.1 µM in data set [9] was found to be 41.7 min. In addition, the t1/2 in data set [2] turned out to be 6.6 min; in data set [3], 19.3 min. Moreover, the half-life at 1 µM in data set [10] is 43.1 min. In addition, the ED50 in data set [14] is 0.96 mg/kg. In addition, the Ratio pIC50 in [15] was found to be 10. Besides, the half-life at 0.3 µM in data set [11] amounted to 42 min. Besides, in data set [6], the Stability amounted to 35.9%.
With `O=C(NC1CCCC1)Oc1cccc(-c2ccccc2)c1`, the figures for the Activity in [1] and in data set [5] were -0.56 and -1.76, respectively. The t1/2 in data set [2] is recorded as 40 min; in data set [3], 2.5 min; in data set [4], 45.1 min. Further, the Stability in [6] is given as 34.4%.
For `O=C(NCC1CCCCC1)Oc1cccc(-c2ccccc2)c1`, the Activity in data set [1] is listed as -1.15; in data set [5] it was -1.35. For the same molecule, the t1/2 in data set [2] amounted to 15.3 min; in data set [3] it was 9.8 min; in data set [4] it was 104.8 min. Moreover, the Stability in [6] came to 65.4%.
As for `O=C(NCCCCCCc1ccccc1)Oc1cccc(-c2ccccc2)c1`, the values for the Activity in data set [1] and in data set [5] were -1.75 and -1.08, respectively. Besides, the t1/2 in [2] worked out at 8.4 min; in data set [3] it was 39.4 min; in [4] it was 73.8 min. Further, the Stability in data set [6] is given as 61.1%.
On to `O=C(NCCc1ccccc1)Oc1cccc(-c2ccccc2)c1`, for which the Activity in data set [1] is recorded as -0.59; in data set [5], -1.5. Further, the t1/2 in data set [2] turned out to be 22.1 min; in [3], 2.7 min; in data set [4] it was 40 min. Also, in data set [6], the Stability came to 34.9%.
In the case of `CCCCCCNC(=O)Oc1cccc(-c2ccccc2)c1`, the results for the Activity in [1] and in data set [5] were -1.06 and -1.03, respectively. Further, the t1/2 is listed as 7.5 min in data set [2], 8 min in [3] and 68.3 min in [4]. Further, the Stability in data set [6] is listed as 46.7%.
On to `O=C(NC1CCCCC1)Oc1cccc(-c2ccccc2)c1`, for which the Activity in [1] is -0.94; in [5] it was -1.79. Further, the half-life at 0.1 µM in [9] worked out at 42.3 min. Moreover, the half-life at 1 µM turned out to be 42.7 min in data set [7], 6 min in [8] and 40.4 min in [10]. Further, the half-life in data set [4] was 40.7 min. Moreover, in data set [14], the ED50 worked out at 0.81 mg/kg. Moreover, the half-life at 0.3 µM in data set [11] turned out to be 42.7 min. The Stability in data set [6] was 41.1%.

For the origin of these results see ChEMBL document CHEMBL1828508, “Biphenyl-3-yl alkylcarbamates as fatty acid amide hydrolase (FAAH) inhibitors: steric effects of N-alkyl chain on rat plasma and liver stability” (Eur J Med Chem, 2011).
